The text below walks through data of patent US20240050428A1 (Cullgen (Shanghai), Inc., priority 2020, published 2024).

One data set addresses GSPT1 (Homo sapiens, UniProt P15170+Q96SW2). As to conditions: cereblon-dependent; also other targets such as IKZF1 and IKZF3 (Matyskiela, Lu et al. 2016); cited from earlier work.
The next data set relates to tested cell lines. The note with it: tested cell lines (Matyskiela, Lu et al. 2016); cited from earlier work.
Data set [1] deals with MOLM-13 cells. The experiment in a line: Cell viability assay (CellTiter-Glo) in MOLM-13 cells, alone or with gilteritinib. The data set is classed as cell-based. The note with it: MOLM-13 cells; for IC50: Homo sapiens, MOLM-13, 72 h, 3 days, CellTiter-Glo.
The test system of data set [2] is MOLM-13 cells. The experiment in a line: Cell viability / cell growth inhibition of MOLM-13 cells, GSPT1 degrader with or without gilteritinib. Type of data set: cell-based. The note with it: combined with FLT3 inhibitor gilteritinib (20 nM in FIG. 2A-2C). Here is the method: FIG. 2A is a graph of cell viability in MOML-13 cells treated with varying doses of GS-002, with or without gilteritinib at 20 nM.
FIG. 2B is a graph of cell viability in MOML-13 cells treated with varying doses of GS-005, with or without gilteritinib at 20 nM.
FIG. 2C is a graph of cell viability in MOML-13 cells treated with varying doses of GS-006, with or without gilteritinib at 20 nM.
When combined with FLT3 inhibitor gilteritinib, the potency of some of the compounds was increased synergistically.

The test system of a further data set is MV4;11 cells. In words: Cell viability assay (CellTiter-Glo) in MV4;11 cells, alone or with gilteritinib. The data set is classed as cell-based. As to conditions: Homo sapiens, MV4-11, 72 h, MV4;11 cells, 3 days, CellTiter-Glo, read-out: MV4.

Read-outs that look alike come from different tables or passages of the source.

Sequence of GSPT1 (P15170 whole entry): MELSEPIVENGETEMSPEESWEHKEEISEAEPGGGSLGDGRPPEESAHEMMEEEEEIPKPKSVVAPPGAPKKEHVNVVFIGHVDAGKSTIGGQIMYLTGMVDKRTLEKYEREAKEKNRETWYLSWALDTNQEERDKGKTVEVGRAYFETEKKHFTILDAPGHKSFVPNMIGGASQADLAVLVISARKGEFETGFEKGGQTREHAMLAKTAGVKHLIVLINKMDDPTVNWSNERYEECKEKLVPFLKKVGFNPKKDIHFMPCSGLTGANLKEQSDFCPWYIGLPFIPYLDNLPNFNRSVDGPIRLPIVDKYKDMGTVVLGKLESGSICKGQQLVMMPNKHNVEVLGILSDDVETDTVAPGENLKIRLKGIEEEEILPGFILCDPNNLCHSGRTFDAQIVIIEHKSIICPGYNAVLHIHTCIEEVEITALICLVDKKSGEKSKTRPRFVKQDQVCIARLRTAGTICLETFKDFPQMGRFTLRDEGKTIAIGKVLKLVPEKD
Sequence of GSPT1 (Q96SW2 whole entry): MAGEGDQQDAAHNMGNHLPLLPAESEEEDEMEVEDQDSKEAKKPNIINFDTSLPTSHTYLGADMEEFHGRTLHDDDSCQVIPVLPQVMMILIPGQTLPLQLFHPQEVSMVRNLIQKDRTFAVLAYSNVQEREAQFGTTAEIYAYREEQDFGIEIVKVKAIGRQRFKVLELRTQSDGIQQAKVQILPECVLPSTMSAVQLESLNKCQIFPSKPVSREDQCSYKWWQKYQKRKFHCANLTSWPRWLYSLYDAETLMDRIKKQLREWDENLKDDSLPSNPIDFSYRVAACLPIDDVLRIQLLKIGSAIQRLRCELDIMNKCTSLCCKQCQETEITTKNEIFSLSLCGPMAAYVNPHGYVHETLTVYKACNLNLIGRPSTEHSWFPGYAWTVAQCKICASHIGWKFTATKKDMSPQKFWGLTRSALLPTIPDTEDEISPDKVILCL
Sequence of GSPT1 (Q16531 whole entry partner): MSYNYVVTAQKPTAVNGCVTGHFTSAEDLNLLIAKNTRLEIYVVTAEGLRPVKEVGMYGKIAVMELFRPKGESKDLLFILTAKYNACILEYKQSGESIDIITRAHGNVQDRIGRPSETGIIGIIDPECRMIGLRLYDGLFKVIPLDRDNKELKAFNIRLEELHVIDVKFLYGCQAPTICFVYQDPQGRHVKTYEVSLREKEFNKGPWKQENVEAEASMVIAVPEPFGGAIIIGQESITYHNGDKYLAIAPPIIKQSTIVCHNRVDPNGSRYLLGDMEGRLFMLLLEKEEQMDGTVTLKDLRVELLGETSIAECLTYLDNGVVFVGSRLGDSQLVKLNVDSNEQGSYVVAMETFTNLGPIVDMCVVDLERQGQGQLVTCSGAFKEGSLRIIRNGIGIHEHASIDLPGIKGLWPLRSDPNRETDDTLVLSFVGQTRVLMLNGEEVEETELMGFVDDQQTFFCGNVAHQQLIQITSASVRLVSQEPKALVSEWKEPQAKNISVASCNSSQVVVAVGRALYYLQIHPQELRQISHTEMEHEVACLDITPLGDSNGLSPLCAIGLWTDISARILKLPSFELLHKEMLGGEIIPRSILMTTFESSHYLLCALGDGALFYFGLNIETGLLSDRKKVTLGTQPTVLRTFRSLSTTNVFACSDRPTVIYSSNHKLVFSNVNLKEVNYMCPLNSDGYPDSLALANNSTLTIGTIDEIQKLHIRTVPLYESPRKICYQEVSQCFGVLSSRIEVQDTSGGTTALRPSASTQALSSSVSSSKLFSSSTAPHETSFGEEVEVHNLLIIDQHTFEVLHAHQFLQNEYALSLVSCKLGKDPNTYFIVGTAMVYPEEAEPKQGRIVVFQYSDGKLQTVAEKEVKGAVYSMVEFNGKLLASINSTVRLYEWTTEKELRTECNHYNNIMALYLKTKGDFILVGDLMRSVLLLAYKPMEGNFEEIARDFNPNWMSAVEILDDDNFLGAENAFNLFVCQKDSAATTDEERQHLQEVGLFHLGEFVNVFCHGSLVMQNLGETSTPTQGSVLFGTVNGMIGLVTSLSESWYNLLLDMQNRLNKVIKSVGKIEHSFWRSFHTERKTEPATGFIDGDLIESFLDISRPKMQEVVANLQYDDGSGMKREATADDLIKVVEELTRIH

Regarding `Cc1ccc(NC(=O)NCc2ccc3c(c2)CN(C2CCC(=O)NC2=O)C3=O)cc1Cl` (centres unmarked) [CC-885], the “degradation of GSPT1” value at GSPT1 is “cereblon-dependent degradation of GSPT1”. In the data set with tested cell lines, the “toxicity in cell lines” value is listed as “significant toxicity in the vast majority of tested cell lines”.
Consider `O=C1CCC(N2C(=O)c3ccc(NCCCCCC(=O)N4CCC(n5cc(-c6ccc7ccccc7n6)cn5)CC4)cc3C2=O)C(=O)N1` (centres unmarked) [GS-006, 2-(2,6-dioxopiperidin-3-yl)-5-((6-oxo-6-(4-(4-(quinolin-2-yl)-1H-pyrazol-1-yl)piperidin-1-yl)hexyl)amino)isoindoline-1,3-dione], for which the IC50 in the data set on MOLM-13 cells [1] (with 20 nM gilteritinib, read-out: MOLM-13 IC50 gilteritinib) came out at 0.3 nM; with MOLM-13 cells [1] (without gilteritinib, read-out: MOLM-13 IC50) it was 29 nM; with MV4;11 cells (with 10 nM gilteritinib, 11 IC50 gilteritinib), 4.6 nM; in the data set with MV4;11 cells (without gilteritinib, 11 IC50) it was 12 nM. For the same compound, the “Sensitivity of FLT3-mutant AML cells to GSPT1 degrader upon FLT3 inhibition” value in the data set on MOLM-13 cells [1] (with or without 20 nM gilteritinib, 3 days (FIG. 2A-2C)) is “remarkably increases sensitivity”. Further, the “potency combined with gilteritinib, cell growth inhibition” value in the data set on MOLM-13 cells [2] is reported as “significantly improved”.
